Measured values as given in ChEMBL document CHEMBL5584221, “Anti-inflammatory and Neuroprotective α-Pyrones from a Marine-Derived Strain of the Fungus Arthrinium arundinis and Their Heterologous Expression” (2024).
The source made the active and inactive calls. The rule behind the calls is not given here.

Key:
[1] = test system: BV-2; assay: Antiinflammatory activity against mouse BV-2 cells assessed as inhibition of LPS-induced nitric oxide release at 20 uM measured after 24 hrs by Griess reagent based ELISA relative to control; type: functional
[2] = test system: BV-2; assay: Antiinflammatory activity against mouse BV-2 cells assessed as inhibition of LPS-induced TNF-alpha production at 2 to 20 uM measured after 24 hrs by ELISA; type: functional, cell-based; settings: dose 2-20 µM
[3] = test system: BV-2; assay: Antiinflammatory activity against mouse BV-2 cells assessed as inhibition of LPS-induced IFN-gamma production at 2 to 20 uM measured after 24 hrs by ELISA; type: functional, cell-based; settings: dose 2-20 µM
[4] = test system: BV-2; assay: Antiinflammatory activity against mouse BV-2 cells assessed as inhibition of LPS-induced decrease of IL-4 at 2 to 20 uM measured after 24 hrs by ELISA; type: functional, cell-based; settings: dose 2-20 µM
[5] = test system: BV-2; assay: Antiinflammatory activity against mouse BV-2 cells assessed as inhibition of LPS-induced decrease of IL-10 at 2 to 20 uM measured after 24 hrs by ELISA; type: functional, cell-based; settings: dose 2-20 µM
[6] = test system: BV-2; assay: Antiinflammatory activity against mouse BV-2 cells assessed as inhibition of LPS-induced iNOS mRNA expression at 20 uM measured after 24 hrs by SYBR green staining based RT-PCR analysis; type: functional, cell-based
[7] = test system: BV-2; assay: Antiinflammatory activity against mouse BV-2 cells assessed as effect on LPS-induced Arg1 mRNA expression at 20 uM measured after 24 hrs by SYBR green staining based RT-PCR analysis; type: functional, cell-based
[8] = test system: BV-2; assay: Antiinflammatory activity against mouse BV-2 cells assessed as effect on LPS-induced CD206 mRNA expression at 20 uM measured after 24 hrs by SYBR green staining based RT-PCR analysis; type: functional, cell-based
[9] = test system: BV-2; assay: Antiinflammatory activity against mouse BV-2 cells assessed as effect on LPS-induced TGFbeta mRNA expression at 20 uM measured after 24 hrs by SYBR green staining based RT-PCR analysis; type: functional, cell-based
[10] = test system: Cortical neurone; assay: Neuroprotective activity against amyloid beta (25 to 35 residues)-induced cell death in ICR mouse primary cortical neurons assessed as increase in cell viability at 20 uM measured after 2 days by CCK-8 assay; type: functional, cell-based; settings: time 2.0 day
[11] = test system: Cortical neurone; assay: Neuroprotective activity against amyloid beta (25 to 35 residues)-induced neuritic atrophy in ICR mouse primary cortical neurons assessed as increase in length of MAP2-positive dendrite at 2 to 20 uM measured after 4 days by immunostaining based fluorescence microscopy; type: functional, cell-based; settings: dose 2-20 µM, time 4.0 day

CC(=C\C(CCCc1cc(C)c(C)o1)C(=O)O)/C=C(\C)C[C@@H](C)c1oc(=O)c(C)c(O)c1C (some centres undefined)
inhibition at 20 µM [1]: > 50%
inhibition [2]: Active
inhibition [3]: Active
inhibition [4]: Active
inhibition [5]: Active
inhibition [6]: Active
Activity [7]: inactive
Activity [8]: inactive
Activity [9]: inactive
Activity [10]: Active
Activity [11]: Active

CCC(C)(O)/C=C(\CO)CCCC(/C=C(C)/C=C(\C)C[C@@H](C)c1oc(=O)c(C)c(O)c1C)C(=O)O (some centres undefined)
inhibition at 20 µM [1]: > 50%

CC1=C[C@@](CO)(CCCC(/C=C(C)/C=C(\C)C[C@@H](C)c2oc(=O)c(C)c(O)c2C)C(=O)O)O[C@H]1C (some centres undefined)
inhibition at 20 µM [1]: > 50%

CCC(C)/C=C(\CO)CCCC(/C=C(C)/C=C(\C)C[C@@H](C)c1oc(=O)c(C)c(O)c1C)C(=O)O (some centres undefined)
inhibition at 20 µM [1]: > 50%
